pIC50: −log10 of the molar value. Each block holds one compound with its values, some of them ahead of it. Activity calls are given as the source filed them. The rule behind the calls is not given here.
Assays:
Vitamin D3 receptor = molecular target: T1, Vitamin D3 receptor (Homo sapiens, UniProt P11473); assay: Agonist activity at VDR (unknown origin) expressed in CHO-K1 cells at 5 uM by luciferase reporter assay; type: cell-based; settings: cho-k1, 5 µM
T1 sequence (P11473 whole entry): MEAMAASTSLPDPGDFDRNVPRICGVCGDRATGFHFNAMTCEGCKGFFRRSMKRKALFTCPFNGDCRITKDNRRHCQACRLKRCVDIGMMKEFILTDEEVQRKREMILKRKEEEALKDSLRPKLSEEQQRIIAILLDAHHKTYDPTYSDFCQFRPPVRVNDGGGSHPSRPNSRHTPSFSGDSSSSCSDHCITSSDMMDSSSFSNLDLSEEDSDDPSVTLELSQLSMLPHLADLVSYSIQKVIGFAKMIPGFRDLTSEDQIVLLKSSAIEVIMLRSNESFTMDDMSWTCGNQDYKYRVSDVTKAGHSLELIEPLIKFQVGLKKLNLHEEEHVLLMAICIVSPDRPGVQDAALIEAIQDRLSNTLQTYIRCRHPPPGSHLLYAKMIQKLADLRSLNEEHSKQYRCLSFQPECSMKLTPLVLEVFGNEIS

CHO = assay: Cytotoxicity against Chinese hamster CHO cells by beta-galactosidase reporter gene assay; type: cell-based, Cricetulus griseus
[1] = molecular target: T2, Sterol regulatory element-binding protein 1 (Homo sapiens, UniProt P36956); assay: Inhibition of SREBP (unknown origin) expressed in CHO-K1 cells by luciferase reporter assay; type: cell-based
T2 sequence (P36956 whole entry): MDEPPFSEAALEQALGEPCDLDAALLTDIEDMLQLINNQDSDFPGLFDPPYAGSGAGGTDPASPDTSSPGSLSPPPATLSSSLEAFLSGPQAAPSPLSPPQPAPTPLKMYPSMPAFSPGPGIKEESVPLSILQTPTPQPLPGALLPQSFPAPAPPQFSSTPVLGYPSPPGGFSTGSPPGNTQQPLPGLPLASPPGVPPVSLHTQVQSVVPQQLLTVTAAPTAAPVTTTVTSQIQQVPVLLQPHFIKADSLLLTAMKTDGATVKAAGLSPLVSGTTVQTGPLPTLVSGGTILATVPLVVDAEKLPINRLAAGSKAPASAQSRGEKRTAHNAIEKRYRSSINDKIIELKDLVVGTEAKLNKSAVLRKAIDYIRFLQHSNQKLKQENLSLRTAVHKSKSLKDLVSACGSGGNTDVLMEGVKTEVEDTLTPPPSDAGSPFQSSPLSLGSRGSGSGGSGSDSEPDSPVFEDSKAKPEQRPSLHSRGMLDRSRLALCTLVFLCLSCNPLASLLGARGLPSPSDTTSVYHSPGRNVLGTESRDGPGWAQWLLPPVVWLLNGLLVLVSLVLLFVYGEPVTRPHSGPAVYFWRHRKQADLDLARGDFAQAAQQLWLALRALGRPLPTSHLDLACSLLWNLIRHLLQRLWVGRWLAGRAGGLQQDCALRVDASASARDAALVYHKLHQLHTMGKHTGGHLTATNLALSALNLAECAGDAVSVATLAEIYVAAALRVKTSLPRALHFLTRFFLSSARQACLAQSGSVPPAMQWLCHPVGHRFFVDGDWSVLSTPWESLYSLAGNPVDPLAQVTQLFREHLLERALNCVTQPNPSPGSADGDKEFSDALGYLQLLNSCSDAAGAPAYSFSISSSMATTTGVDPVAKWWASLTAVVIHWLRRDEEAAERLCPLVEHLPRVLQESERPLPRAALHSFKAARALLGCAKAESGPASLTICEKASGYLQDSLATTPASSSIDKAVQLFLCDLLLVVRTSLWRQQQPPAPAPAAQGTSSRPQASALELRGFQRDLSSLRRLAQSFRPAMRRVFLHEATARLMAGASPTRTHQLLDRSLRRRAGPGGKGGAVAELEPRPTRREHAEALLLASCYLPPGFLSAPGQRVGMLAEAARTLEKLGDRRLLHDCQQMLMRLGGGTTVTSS

[2] = Toxicity in ob/ob mouse assessed as sick at 10 mg/kg, ip administered 5 times per week for 4 weeks; type: organism-based; settings: in vivo, 672 h
[3] = Toxicity in ob/ob mouse assessed as increase in weight at 10 mg/kg, ip administered 5 times per week for 4 weeks; type: organism-based; settings: in vivo, 672 h
[4] = Effect on serum calcium level in mouse assessed as increase in calcium level at 10 mg/kg, ip administered once daily for 4 days […]; type: ADME, organism-based; settings: in vivo, 96 h, time 4 day
Mus musculus [5] = species: Mus musculus; settings: Liver, dose 10.0 mg/kg, time 4.0 day
Mus musculus [6] = species: Mus musculus; settings: Liver, dose 10.0 mg/kg, time 4.0 day; remark: listed apart in the source
[7] = molecular target: T3, Sterol regulatory element-binding protein cleavage-activating protein (Homo sapiens) (UniProt Q12770); assay: Inhibition of FLAG-tagged SCAP (unknown origin) expressed in CHO-K1 cells assessed as reduction in SCAP protein level at 5 uM after 24 hrs by Western blotting analysis; type: cell-based
T3 sequence (whole entry): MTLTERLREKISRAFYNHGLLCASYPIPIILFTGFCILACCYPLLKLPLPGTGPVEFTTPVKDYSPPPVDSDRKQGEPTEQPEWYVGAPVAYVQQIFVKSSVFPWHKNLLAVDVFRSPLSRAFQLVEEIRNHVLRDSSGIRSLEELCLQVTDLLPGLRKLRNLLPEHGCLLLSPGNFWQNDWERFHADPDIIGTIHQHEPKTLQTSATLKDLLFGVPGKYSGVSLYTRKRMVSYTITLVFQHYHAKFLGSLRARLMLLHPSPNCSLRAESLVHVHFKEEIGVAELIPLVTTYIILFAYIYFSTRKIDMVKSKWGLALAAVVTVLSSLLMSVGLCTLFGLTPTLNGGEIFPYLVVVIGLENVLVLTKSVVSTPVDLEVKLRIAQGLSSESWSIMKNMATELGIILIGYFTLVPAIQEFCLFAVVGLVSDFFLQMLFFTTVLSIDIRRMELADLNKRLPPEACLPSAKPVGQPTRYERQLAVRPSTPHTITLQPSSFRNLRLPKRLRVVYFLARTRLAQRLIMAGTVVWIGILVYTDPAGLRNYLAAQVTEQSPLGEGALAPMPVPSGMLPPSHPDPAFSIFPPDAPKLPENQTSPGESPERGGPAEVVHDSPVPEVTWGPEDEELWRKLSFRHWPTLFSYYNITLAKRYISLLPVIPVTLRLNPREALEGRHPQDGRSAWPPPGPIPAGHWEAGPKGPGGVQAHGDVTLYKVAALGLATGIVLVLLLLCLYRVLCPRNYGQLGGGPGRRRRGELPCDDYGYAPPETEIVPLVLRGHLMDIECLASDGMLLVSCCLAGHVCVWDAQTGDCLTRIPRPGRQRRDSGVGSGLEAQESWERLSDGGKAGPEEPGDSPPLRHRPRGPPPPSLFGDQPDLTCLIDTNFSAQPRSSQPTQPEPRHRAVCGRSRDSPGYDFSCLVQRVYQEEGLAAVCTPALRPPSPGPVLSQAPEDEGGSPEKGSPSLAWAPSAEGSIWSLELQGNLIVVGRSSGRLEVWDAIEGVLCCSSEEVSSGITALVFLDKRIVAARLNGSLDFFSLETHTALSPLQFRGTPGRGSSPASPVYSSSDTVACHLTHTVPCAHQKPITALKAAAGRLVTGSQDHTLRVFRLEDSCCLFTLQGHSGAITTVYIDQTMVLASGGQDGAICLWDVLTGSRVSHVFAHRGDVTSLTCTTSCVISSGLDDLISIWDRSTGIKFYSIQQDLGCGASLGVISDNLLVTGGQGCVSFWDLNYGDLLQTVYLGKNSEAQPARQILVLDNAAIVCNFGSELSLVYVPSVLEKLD

Activity (Vitamin D3 receptor): Not Active
Structure (SMILES): C[C@H](CCC(F)(F)C(C)(C)O)[C@H]1CC[C@H]2/C(=C/Cn3nnnc3-c3ccc(F)cc3)CCC[C@]12C
Activity (CHO): Non-Toxic

Activity (Vitamin D3 receptor): Active
Structure (SMILES): C[C@H](CCCC(C)(C)O)[C@H]1CC[C@H]2/C(=C/Cn3ncnn3)CCC[C@]12C

Activity (Vitamin D3 receptor): Active
Structure (SMILES): C[C@H](CCCC(C)(C)O)[C@H]1CC[C@H]2/C(=C/Cn3cc(CCCCO)nn3)CCC[C@]12C

Activity (Vitamin D3 receptor): Not Active
Structure (SMILES): C[C@H](CCCC(O)(C(F)(F)F)C(F)(F)F)[C@H]1CC[C@H]2/C(=C/Cn3cc(-c4ccc(F)cc4)nn3)CCC[C@]12C
Activity [4]: Toxic | inhibition (Mus musculus [5]): Active | inhibition (Mus musculus [6]): Active

Continued, compound first:

Structure (SMILES): C[C@H](CCCC(C)(C)O)[C@H]1CC[C@H]2/C(=C/Cn3cc(-c4ccccn4)nn3)CCC[C@]12C
Activity (Vitamin D3 receptor): Active

Structure (SMILES): C[C@H](CCCC(C)(C)O)[C@H]1CC[C@H]2/C(=C/Cn3cnnn3)CCC[C@]12C
Activity (Vitamin D3 receptor): Active

Structure (SMILES): CCCc1cc(-c2nc(-c3ccc(NS(C)(=O)=O)cc3)cs2)ccn1
pIC50 [1]: 6.15

Structure (SMILES): C[C@H](CCC(F)(F)C(C)(C)O)[C@H]1CC[C@H]2/C(=C/Cn3nnnc3-c3ccccc3)CCC[C@]12C
Activity (CHO): Non-Toxic | Activity [2]: Non-Toxic | Activity [3]: Toxic

Structure (SMILES): C[C@H](CCCC(O)(C(F)(F)F)C(F)(F)F)[C@H]1CC[C@H]2/C(=C/Cn3cc(-c4ccccc4)nn3)CCC[C@]12C
Activity [4]: Toxic | inhibition (Mus musculus [5]): Active | inhibition (Mus musculus [6]): Active

Structure (SMILES): C=C1CC[C@H](O)C/C1=C/C=C1\CCC[C@]2(C)[C@@H]([C@H](C)CCCC(C)(C)O)CC[C@@H]12 [CALCIFEDIOL ANHYDROUS]
Activity [4]: Toxic | pIC50 [1]: 5.93 | inhibition [7]: Active | Activity [2]: Toxic

Structure (SMILES): C[C@H](CCC(F)(F)C(C)(C)O)[C@H]1CC[C@H]2/C(=C/Cn3nnc(-c4ccc(F)cc4)n3)CCC[C@]12C
Activity (Vitamin D3 receptor): Not Active | Activity (CHO): Non-Toxic

Structure (SMILES): C[C@H](CCC(F)(F)C(C)(C)O)[C@H]1CC[C@H]2/C(=C/Cn3cc(-c4ccc(F)cc4)nn3)CCC[C@]12C
Activity (Vitamin D3 receptor): Not Active
